Experimental data as given in the supplement of paper PMC10307832.

How the values were obtained:
Assay in all cases: relative viability (nuclei count vs DMSO), 5 days (fraction); higher = more cells survive
Pemetrexed + OSI-027 = compound: Nc1nc2[nH]cc(CCc3ccc(C(=O)N[C@@H](CCC(=O)O)C(=O)O)cc3)c2c(=O)[nH]1 [Pemetrexed] + COc1cccc2cc(-c3nc([C@H]4CC[C@H](C(=O)O)CC4)n4ncnc(N)c34)[nH]c12 [OSI-027] (partner 0.5 µM)
Procedure, shortened: (§1)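 Cells from lung cancer lines were seeded into 1536-well plates and, one day later, dosed by pin tool. Treatments were either a single drug or a fixed dose of an anchor drug with five library-drug doses (not always all listed) in √10 steps. After 5 days, nuclei were stained in a one-step fixation (final 0.05% Triton X-100, 1% formaldehyde, 1 ug/ml Hoechst) and counted on 4× images, and relative viability is the treated-to-vehicle nuclei ratio, as the median of duplicate plates.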

Pemetrexed + AZD7762 = compound: Nc1nc2[nH]cc(CCc3ccc(C(=O)N[C@@H](CCC(=O)O)C(=O)O)cc3)c2c(=O)[nH]1 [Pemetrexed] + NC(=O)Nc1cc(-c2cccc(F)c2)sc1C(=O)N[C@H]1CCCNC1 [AZD7762] (partner 0.2 µM)
Procedure, shortened: as §1

Idelalisib + Phenformin = compound: CC[C@H](Nc1ncnc2[nH]cnc12)c1nc2cccc(F)c2c(=O)n1-c1ccccc1 [Idelalisib] + N=C(N)NC(=N)NCCc1ccccc1 [Phenformin] (partner 250 µM)
Procedure, shortened: as §1

Idelalisib + Dasatinib = compound: CC[C@H](Nc1ncnc2[nH]cnc12)c1nc2cccc(F)c2c(=O)n1-c1ccccc1 [Idelalisib] + Cc1nc(Nc2ncc(C(=O)Nc3c(C)cccc3Cl)s2)cc(N2CCN(CCO)CC2)n1 [Dasatinib] (partner 0.075 µM)
Procedure, shortened: as §1

| Cell Line | relative viability (Pemetrexed + OSI-027; first compound 0.002 µM) | relative viability (Pemetrexed + OSI-027; first compound 0.006325 µM) | relative viability (Pemetrexed + OSI-027; first compound 0.02 µM) | relative viability (Pemetrexed + OSI-027; first compound 0.06325 µM) | relative viability (Pemetrexed + OSI-027; first compound 0.2 µM) | relative viability (Pemetrexed + AZD7762; first compound 0.002 µM) | relative viability (Pemetrexed + AZD7762; first compound 0.006325 µM) | relative viability (Pemetrexed + AZD7762; first compound 0.06325 µM) | relative viability (Pemetrexed + AZD7762; first compound 0.2 µM) | relative viability (Idelalisib + Phenformin; first compound 0.04 µM) | relative viability (Idelalisib + Phenformin; first compound 0.1265 µM) | relative viability (Idelalisib + Phenformin; first compound 0.4 µM) | relative viability (Idelalisib + Phenformin; first compound 1.265 µM) | relative viability (Idelalisib + Phenformin; first compound 4 µM) | relative viability (Idelalisib + Dasatinib; first compound 0.04 µM) | relative viability (Idelalisib + Dasatinib; first compound 0.1265 µM) | relative viability (Idelalisib + Dasatinib; first compound 0.4 µM) | relative viability (Idelalisib + Dasatinib; first compound 1.265 µM) | relative viability (Idelalisib + Dasatinib; first compound 4 µM) | relative viability (Pemetrexed + AZD7762; first compound 0.02 µM) |
| --- | --- | --- | --- | --- | --- | --- | --- | --- | --- | --- | --- | --- | --- | --- | --- | --- | --- | --- | --- | --- |
| NCI-H650 | 0.536 | 0.562 | 0.551 | 0.507 | 0.532 | 0.966 | 0.939 | 0.83 | 0.931 | 0.519 | 0.429 | 0.446 | 0.487 | 0.457 | 0.498 | 0.438 | 0.432 | 0.481 | 0.394 | – |
| A-427 | 0.422 | 0.431 | 0.481 | 0.466 | 0.402 | 0.798 | 0.708 | 0.755 | 0.733 | 0.36 | 0.318 | 0.287 | 0.372 | 0.328 | 0.783 | 0.685 | 0.568 | 0.704 | 0.671 | 0.818 |
| NCI-H2347 | 0.296 | 0.292 | 0.49 | 0.406 | 0.339 | 0.61 | 0.831 | 0.517 | 0.428 | 0.395 | 0.386 | 0.372 | 0.284 | 0.313 | 0.416 | 0.346 | 0.25 | 0.292 | 0.325 | 0.914 |
| NCI-H1793 | 0.251 | 0.259 | 0.309 | 0.284 | 0.289 | 0.468 | 0.404 | 0.446 | 0.509 | 0.388 | 0.369 | 0.288 | 0.335 | 0.224 | 0.379 | 0.372 | 0.294 | 0.374 | 0.323 | 0.966 |
| NCI-H1651 | 0.61 | 0.66 | 0.805 | 0.624 | 0.717 | 0.412 | 0.452 | 0.44 | 0.455 | 0.35 | 0.372 | 0.258 | 0.322 | 0.321 | 0.305 | 0.314 | 0.318 | 0.518 | 0.332 | 0.51 |
| HCC-78 | 0.326 | 0.354 | 0.395 | 0.336 | 0.293 | – | 0.505 | 0.3 | 0.236 | 0.945 | 0.647 | 0.582 | 0.751 | 0.674 | 0.407 | 0.378 | 0.311 | 0.361 | 0.41 | 0.42 |
| NCI-H23 | 0.516 | 0.532 | 0.623 | 0.684 | 0.663 | 0.253 | 0.231 | 0.235 | 0.245 | 0.713 | 0.845 | 0.792 | – | 0.776 | 0.808 | 0.828 | 0.552 | – | 0.825 | 0.232 |
| LOU-NH91 | 0.68 | 0.727 | 0.789 | 0.667 | 0.531 | 0.678 | 0.738 | 0.44 | 0.394 | 0.712 | 0.725 | 0.573 | 0.492 | 0.643 | 0.599 | 0.561 | 0.482 | 0.42 | 0.542 | 0.715 |
| LXF-289 | 0.775 | 0.759 | 0.909 | 0.76 | 0.744 | 1.06 | 1.02 | 1.09 | 1.02 | 0.506 | 0.518 | 0.46 | 0.534 | 0.496 | 0.19 | 0.218 | 0.135 | 0.202 | 0.195 | 1.14 |
| NCI-H460 | 0.57 | 0.51 | 0.824 | 0.374 | 0.0473 | 0.589 | 0.707 | 0.194 | 0.0726 | 0.643 | 0.516 | 0.438 | 0.503 | 0.515 | 0.571 | 0.535 | 0.405 | 0.5 | 0.428 | 0.657 |
| NCI-H1792 | 0.735 | 0.808 | 0.778 | 0.715 | 0.744 | 0.608 | 0.633 | 0.676 | 0.633 | 0.335 | 0.182 | – | 0.225 | 0.208 | 0.469 | 0.92 | 0.68 | 0.794 | 0.569 | 0.697 |
| EMC-BAC-2 | 0.352 | 0.338 | 0.4 | 0.372 | 0.363 | 1.1 | 0.944 | 0.948 | 0.69 | 0.564 | 0.517 | 0.478 | 0.506 | 0.524 | 0.319 | 0.337 | 0.283 | 0.321 | 0.346 | 1.14 |
| CAL-12T | 0.617 | 0.631 | 0.819 | 0.648 | 0.671 | 0.562 | 0.685 | 0.579 | 0.543 | 0.622 | 0.614 | 0.507 | 0.65 | 0.67 | 0.315 | 0.478 | 0.273 | 0.375 | 0.305 | 0.782 |
| ChaGo-K-1 | 0.572 | 0.59 | 0.61 | 0.317 | 0.23 | 0.902 | 0.803 | 0.27 | 0.238 | 0.49 | 0.453 | 0.424 | 0.477 | 0.436 | 0.548 | 0.516 | 0.534 | 0.563 | 0.585 | 0.834 |
| COR-L 105 | 0.735 | 0.638 | 1.01 | 0.646 | 0.619 | – | – | – | – | 0.592 | 0.473 | 0.433 | 0.564 | 0.421 | 0.363 | 0.379 | 0.31 | 0.354 | 0.334 | – |
| NCI-H1944 | – | 0.512 | 0.43 | 0.405 | 0.403 | 0.48 | 0.432 | 0.506 | 0.531 | 0.237 | 0.204 | 0.158 | 0.187 | 0.175 | 0.241 | 0.205 | 0.169 | 0.196 | 0.202 | 0.582 |
| NCI-H2009 | 0.573 | 0.607 | 0.749 | 0.66 | 0.683 | – | – | – | – | 0.496 | 0.483 | 0.474 | 0.536 | 0.491 | 0.335 | 0.302 | 0.266 | 0.252 | 0.197 | – |
